PubChem BioAssay AID256 (DTP/NCI, 2004)
Values joined by “and” are separate entries in the source; they are usually repeats but may differ in a detail not shown here. Equal values may be shown once. Toxic doses and inconclusive results are not listed.

Test system: CD2F1 mice, L1210 leukemia ip, survival T/C
Assay: NCI In Vivo Anticancer Drug Screen. Data for tumor model L1210 Leukemia (intraperitoneal) in CD2F1 (CDF1) mice
Settings: higher = longer survival
Procedure, shortened: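 Transplantable tumor in mice; compound-treated vs vehicle-treated groups. Read-out = treated/control ratio of the measured endpoint.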

CN(C)CCN1C(=O)c2cccc3cc(N)cc(c23)C1=O
T/C (endpoint: mean survival time, dose: 1.0 mg/kg/injection, schedule: Q01DX009 (ip), vehicle: saline with Tween-80): 92 % of control and 104 % of control
T/C (endpoint: mean survival time, dose: 2.0 mg/kg/injection, schedule: Q01DX009 (ip), vehicle: saline with Tween-80): 101 % of control and 102 % of control
T/C (endpoint: mean survival time, dose: 4.0 mg/kg/injection, schedule: Q01DX009 (ip), vehicle: saline with Tween-80): 107 % of control and 108 % of control
T/C (endpoint: mean survival time, dose: 16.0 mg/kg/injection, schedule: Q01DX009 (ip), vehicle: saline with Tween-80): 175 % of control and 197 % of control
T/C (endpoint: mean survival time, dose: 32.0 mg/kg/injection, schedule: Q01DX009 (ip), vehicle: saline with Tween-80): 89 % of control and 96 % of control
T/C (endpoint: median survival time, dose: 1.0 mg/kg/injection, schedule: Q01DX009 (ip), vehicle: acid diluted with saline): 99 % of control
T/C (endpoint: median survival time, dose: 1.2 mg/kg/injection, schedule: Q03HX024 (ip), vehicle: water): 113 % of control
T/C (endpoint: median survival time, dose: 1.8 mg/kg/injection, schedule: Q03HX024 (ip), vehicle: water): 117 % of control
T/C (endpoint: median survival time, dose: 2.0 mg/kg/injection, schedule: Q01DX009 (ip), vehicle: acid diluted with saline): 97 % of control and 107 % of control
T/C (endpoint: median survival time, dose: 2.0 mg/kg/injection, schedule: Q01DX009 (ip), vehicle: saline with Tween-80): 105 % of control
T/C (endpoint: median survival time, dose: 2.7 mg/kg/injection, schedule: Q03HX024 (ip), vehicle: water): 115 % of control
T/C (endpoint: median survival time, dose: 2.9 mg/kg/injection, schedule: Q01DX005 (iv), vehicle: water): 108 % of control
T/C (endpoint: median survival time, dose: 3.2 mg/kg/injection, schedule: Q01DX009 (ip), vehicle: saline): 118 % of control
T/C (endpoint: median survival time, dose: 3.2 mg/kg/injection, schedule: Q01DX009 (ip), vehicle: water): 105 % of control
T/C (endpoint: median survival time, dose: 3.65 mg/kg/injection, schedule: Q03HX008 (ip), vehicle: water): 118 % of control
T/C (endpoint: median survival time, dose: 4.0 mg/kg/injection, schedule: Q01DX009 (ip), vehicle: acid diluted with saline): 113 % of control and 99 % of control
T/C (endpoint: median survival time, dose: 4.0 mg/kg/injection, schedule: Q01DX009 (ip), vehicle: saline with Tween-80): 116 % of control
T/C (endpoint: median survival time, dose: 4.35 mg/kg/injection, schedule: Q01DX005 (iv), vehicle: water): 105 % of control
T/C (endpoint: median survival time, dose: 4.7 mg/kg/injection, schedule: Q01DX009 (ip), vehicle: water): 124 % of control
T/C (endpoint: median survival time, dose: 5.0 mg/kg/injection, schedule: Q01DX009 (ip), vehicle: acid diluted with saline): 113 % of control
T/C (endpoint: median survival time, dose: 5.44 mg/kg/injection, schedule: Q03HX008 (ip), vehicle: water): 120 % of control
T/C (endpoint: median survival time, dose: 5.76 mg/kg/injection, schedule: Q01DX005 (ip), vehicle: water): 117 % of control
T/C (endpoint: median survival time, dose: 6.03 mg/kg/injection, schedule: Q03HX024 (ip), vehicle: water): 154 % of control
T/C (endpoint: median survival time, dose: 6.5 mg/kg/injection, schedule: Q01DX005 (iv), vehicle: saline with Tween-80): 105 % of control
T/C (endpoint: median survival time, dose: 6.5 mg/kg/injection, schedule: Q01DX005 (iv), vehicle: water): 113 % of control
T/C (endpoint: median survival time, dose: 7.0 mg/kg/injection, schedule: Q01DX009 (ip), vehicle: acid diluted with saline): 114 % of control
T/C (endpoint: median survival time, dose: 7.1 mg/kg/injection, schedule: Q01DX009 (ip), vehicle: saline with Tween-80): 123 % of control
T/C (endpoint: median survival time, dose: 8.0 mg/kg/injection, schedule: Q01DX009 (ip), vehicle: acid diluted with saline): 118 % of control
T/C (endpoint: median survival time, dose: 8.46 mg/kg/injection, schedule: Q01DX005 (ip), vehicle: saline with Tween-80): 114 % of control
T/C (endpoint: median survival time, dose: 8.46 mg/kg/injection, schedule: Q01DX005 (ip), vehicle: water): 120 % of control
T/C (endpoint: median survival time, dose: 9.0 mg/kg/injection, schedule: Q03HX024 (ip), vehicle: water): 209 % of control
T/C (endpoint: median survival time, dose: 9.7 mg/kg/injection, schedule: Q01DX005 (iv), vehicle: saline with Tween-80): 114 % of control
T/C (endpoint: median survival time, dose: 9.7 mg/kg/injection, schedule: Q01DX005 (iv), vehicle: water): 120 % of control
T/C (endpoint: median survival time, dose: 9.7 mg/kg/injection, schedule: Q04DX003 (ip), vehicle: water): 120 % of control
T/C (endpoint: median survival time, dose: 10.0 mg/kg/injection, schedule: Q01DX009 (ip), vehicle: acid diluted with saline): 117 % of control
T/C (endpoint: median survival time, dose: 10.7 mg/kg/injection, schedule: Q01DX009 (ip), vehicle: saline): 165 % of control
T/C (endpoint: median survival time, dose: 11.0 mg/kg/injection, schedule: Q01DX009 (ip), vehicle: saline with Tween-80): 150 % of control and 167 % of control
T/C (endpoint: median survival time, dose: 12.1 mg/kg/injection, schedule: Q03HX008 (ip), vehicle: water): 174 % of control
T/C (endpoint: median survival time, dose: 13.4 mg/kg/injection, schedule: Q03HX024 (ip), vehicle: water): 103 % of control
T/C (endpoint: median survival time, dose: 14.5 mg/kg/injection, schedule: Q04DX003 (ip), vehicle: water): 120 % of control
T/C (endpoint: median survival time, dose: 14.6 mg/kg/injection, schedule: Q01DX001 (iv), vehicle: water): 112 % of control
T/C (endpoint: median survival time, dose: 16.0 mg/kg/injection, schedule: Q01DX009 (ip), vehicle: acid diluted with saline): 175 % of control and 217 % of control and 112 % of control
T/C (endpoint: median survival time, dose: 16.0 mg/kg/injection, schedule: Q01DX009 (ip), vehicle: saline): 206 % of control
T/C (endpoint: median survival time, dose: 16.0 mg/kg/injection, schedule: Q01DX009 (ip), vehicle: water): 187 % of control
T/C (endpoint: median survival time, dose: 19.3 mg/kg/injection, schedule: Q01DX005 (ip), vehicle: saline with Tween-80): 158 % of control
T/C (endpoint: median survival time, dose: 19.3 mg/kg/injection, schedule: Q01DX005 (ip), vehicle: water): 183 % of control
T/C (endpoint: median survival time, dose: 21.6 mg/kg/injection, schedule: Q01DX005 (iv), vehicle: saline with Tween-80): 162 % of control
T/C (endpoint: median survival time, dose: 21.6 mg/kg/injection, schedule: Q01DX005 (iv), vehicle: water): 182 % of control
T/C (endpoint: median survival time, dose: 21.8 mg/kg/injection, schedule: Q01DX001 (iv), vehicle: water): 113 % of control
T/C (endpoint: median survival time, dose: 24.0 mg/kg/injection, schedule: Q01DX009 (ip), vehicle: saline with Tween-80): 158 % of control and 163 % of control
T/C (endpoint: median survival time, dose: 24.0 mg/kg/injection, schedule: Q01DX009 (ip), vehicle: saline): 118 % of control
T/C (endpoint: median survival time, dose: 24.0 mg/kg/injection, schedule: Q01DX009 (ip), vehicle: water): 117 % of control
T/C (endpoint: median survival time, dose: 28.8 mg/kg/injection, schedule: Q01DX001 (ip), vehicle: water): 120 % of control
T/C (endpoint: median survival time, dose: 28.8 mg/kg/injection, schedule: Q01DX005 (ip), vehicle: saline with Tween-80): 187 % of control
T/C (endpoint: median survival time, dose: 28.8 mg/kg/injection, schedule: Q01DX005 (ip), vehicle: water): 195 % of control
T/C (endpoint: median survival time, dose: 28.9 mg/kg/injection, schedule: Q01DX009 (oral), vehicle: water): 174 % of control
T/C (endpoint: median survival time, dose: 32.0 mg/kg/injection, schedule: Q01DX009 (ip), vehicle: acid diluted with saline): 95 % of control
T/C (endpoint: median survival time, dose: 32.0 mg/kg/injection, schedule: Q01DX009 (ip), vehicle: saline with Tween-80): 90 % of control and 108 % of control
T/C (endpoint: median survival time, dose: 32.2 mg/kg/injection, schedule: Q01DX005 (iv), vehicle: saline with Tween-80): 96 % of control
T/C (endpoint: median survival time, dose: 32.3 mg/kg/injection, schedule: Q04DX003 (ip), vehicle: water): 196 % of control
T/C (endpoint: median survival time, dose: 36.0 mg/kg/injection, schedule: Q01DX009 (ip), vehicle: saline): 93 % of control
T/C (endpoint: median survival time, dose: 43.1 mg/kg/injection, schedule: Q01DX009 (oral), vehicle: water): 108 % of control
T/C (endpoint: median survival time, dose: 43.2 mg/kg/injection, schedule: Q01DX005 (ip), vehicle: saline with Tween-80): 95 % of control
T/C (endpoint: median survival time, dose: 48.3 mg/kg/injection, schedule: Q04DX003 (ip), vehicle: water): 244 % of control
T/C (endpoint: median survival time, dose: 72.0 mg/kg/injection, schedule: Q04DX003 (ip), vehicle: water): 108 % of control

COCC1OC2OC3C(COC)OC(OC4C(COC)OC(OC5C(COC)OC(OC6C(COC)OC(OC7C(COC)OC(OC8C(COC)OC(OC1C(O)C2O)C(O)C8O)C(O)C7O)C(O)C6O)C(O)C5O)C(O)C4O)C(O)C3O (stereo not drawn) (tested in a mixture with another compound)
T/C (endpoint: mean survival time, dose: 25.0 mg/kg/injection, schedule: Q01DX009 (ip), vehicle: Klucel (hydroxypropylcellulose) (HPC)): 98 % of control
T/C (endpoint: mean survival time, dose: 50.0 mg/kg/injection, schedule: Q01DX009 (ip), vehicle: Klucel (hydroxypropylcellulose) (HPC)): 98 % of control
T/C (endpoint: mean survival time, dose: 100.0 mg/kg/injection, schedule: Q01DX009 (ip), vehicle: Klucel (hydroxypropylcellulose) (HPC)): 94 % of control
T/C (endpoint: mean survival time, dose: 200.0 mg/kg/injection, schedule: Q01DX009 (ip), vehicle: Klucel (hydroxypropylcellulose) (HPC)): 96 % of control
T/C (endpoint: mean survival time, dose: 400.0 mg/kg/injection, schedule: Q01DX009 (ip), vehicle: Klucel (hydroxypropylcellulose) (HPC)): 93 % of control

CC12CCC(OC3CCCCO3)CC1=CCC1C2CCC2(C)C1CCC21CCNP(=O)(N(CCCl)CCCl)O1 (stereo not drawn)
T/C (endpoint: mean survival time, dose: 12.5 mg/kg/injection, schedule: Q01DX005 (ip), vehicle: other): 100 % of control
T/C (endpoint: mean survival time, dose: 25.0 mg/kg/injection, schedule: Q01DX005 (ip), vehicle: other): 91 % of control
T/C (endpoint: mean survival time, dose: 50.0 mg/kg/injection, schedule: Q01DX005 (ip), vehicle: other): 95 % of control
T/C (endpoint: mean survival time, dose: 100.0 mg/kg/injection, schedule: Q01DX005 (ip), vehicle: other): 95 % of control
T/C (endpoint: mean survival time, dose: 125.0 mg/kg/injection, schedule: Q01DX001 (ip), vehicle: Klucel (hydroxypropylcellulose) (HPC)): 95 % of control
T/C (endpoint: mean survival time, dose: 250.0 mg/kg/injection, schedule: Q01DX001 (ip), vehicle: Klucel (hydroxypropylcellulose) (HPC)): 96 % of control
T/C (endpoint: mean survival time, dose: 500.0 mg/kg/injection, schedule: Q01DX001 (ip), vehicle: Klucel (hydroxypropylcellulose) (HPC)): 101 % of control
T/C (endpoint: mean survival time, dose: 1000.0 mg/kg/injection, schedule: Q01DX001 (ip), vehicle: Klucel (hydroxypropylcellulose) (HPC)): 98 % of control
